In patent US20230295213A1, “CD73 INHIBITORS AND PHARMACEUTICAL USES THEREOF” (RISEN (SUZHOU) PHARMA TECH CO., LTD., priority 2018, published 2023):
Read-outs that look alike come from different tables or passages of the source.

What was measured:
[1] = target: CD73 (Homo sapiens (Human), UniProt P21589); assay: CD73 cellular assay (T cell stimulation assay); format: cell-based; conditions: human T cells, anti-CD3/CD28 stimulated, AMP + EHNA, 72 hours
Protocol: Procedures for T cell stimulation assay were the following: Day 1, coating the plate: diluting anti-CD3 to 1 μg/mL with sterile PBS; coating 96 well flat bottom tissue culture plates (Corning #3599) with 50 uL of diluted anti-CD3, centrifuging (1000 rpm) for 1 min; sealing the plate and incubating the plate at 4° C. overnight for antibody crosslinking.
Day 2, human T cell seeding: (a) washing the coated plate (from Day 1) with sterilized PBS buffer (2×100 uL); (b) re-suspending T cells and adjusting cell density to 0.5×10^6 cells/mL with growth media (X-VIVO 15+1% Pen/strep+1% glutamine), and seeding 100 μL/well (50,000 cells/well) in 96-well plates; (c) diluting CD28 antibody for 8x working concentration (8 μg/mL) with growth media, giving 1 μg/mL of the final concentration, followed by addition of CD28 antibody (25 μL) to cell plate; incubating the plates under 5% CO2 at 37° C. for 60 min; (d) adding compound (25 μL, 8x dilution with growth media) to cell plate, and incubating the plates under 5% CO2 at 37° C. for 60 min; (e) adding AMP (25 μL) and EHNA (25 μL, 8x dilution with growth media) to cell plate; (f) incubating the plates under 5% CO2 at 37° C. for 72 hours.
Day 5, collecting cell growth media and testing cell proliferation: (a) centrifuging the cell plate (1,000 rpm) for 5 min; (b) harvesting 150 μL of the cell culture media from each well to 96 well plate, followed by measurement of IFN-r expression by ELISA test; (c) taking a portion of the cell culture supernatant for cytokine analysis, removing the remaining supernatant, followed by addition of fresh growth media (X-VIVO 15+1% Pen/strep+1% glutamine, 100 μL); (d) adding Celltiter-Glo solution (50 μL) into each well for the measurement of cell proliferation by: (e) incubating the plates at room temperature for 10 min on a shaker; (f) transferring 100 μL solution into 96-well white plate and taking the readout of the Celltiter-Glo data using a TECAN Reader.

[2] = target: Recombinant human 5′-nucleotidase (hCD73) (Homo sapiens (Human), UniProt P21589); assay: CD73 enzyme inhibition assay (hCD73, AMP substrate, PiColorLock Gold phosphate detection); format: biochemical; conditions: hCD73 1 nM solution, AMP 60 μM solution, 37° C. 20 min, absorbance 635 nm
Recombinant human 5′-nucleotidase (hCD73), sequence (P21589 27-574): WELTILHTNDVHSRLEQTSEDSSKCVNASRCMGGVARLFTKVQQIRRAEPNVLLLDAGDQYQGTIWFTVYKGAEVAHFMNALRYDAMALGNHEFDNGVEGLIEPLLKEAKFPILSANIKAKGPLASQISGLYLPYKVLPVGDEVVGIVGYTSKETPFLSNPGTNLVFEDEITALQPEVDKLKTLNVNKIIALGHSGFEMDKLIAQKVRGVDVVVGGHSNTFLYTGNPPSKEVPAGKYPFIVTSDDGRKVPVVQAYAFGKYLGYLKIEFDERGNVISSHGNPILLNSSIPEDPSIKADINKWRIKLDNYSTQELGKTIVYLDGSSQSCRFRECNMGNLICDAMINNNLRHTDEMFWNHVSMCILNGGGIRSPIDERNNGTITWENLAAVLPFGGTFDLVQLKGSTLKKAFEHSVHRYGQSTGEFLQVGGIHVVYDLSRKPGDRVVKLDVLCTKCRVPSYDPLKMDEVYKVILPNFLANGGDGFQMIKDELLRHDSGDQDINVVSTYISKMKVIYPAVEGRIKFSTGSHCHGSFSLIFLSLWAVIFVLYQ
Protocol: Test compound solution preparation: Stock solution of a test compound was prepared in DMSO at 10 mM concentration. A series of preset 10-concentration solutions of a test compound were prepared by diluting the stock solution in 5-fold gradient dilution with DMSO.
Assay buffer (lx): 20 mm Tris, 25 mM NaCl, 1 mM MgCl2, pH 7.5, 0.005% Tween-20 (freshly prepared, and ready for use).
An aliquot of 0.25 μL of compound solution or DMSO (blank control) was added to each test well of a micro well plate. Recombinant human 5′-nucleotidase (hCD73) was diluted to 1 nM in assay buffer; and an aliquot of 25 μL hCD73 (1 nM) solution was added to the corresponding wells of the plate. The contents of the well were well-mixed, and the plate was covered with sealing film, centrifuged at 1000 rpm for 30 sec., followed by incubation at room temperature for 15 min. AMP, the substrate, was diluted to 60 μM concentration in the assay buffer. To each reaction well was added 25 μL of AMP solution. After mixing well, the plate was covered with sealing film, centrifuged at 1000 rpm for 30 sec., and incubated at 37° C. for 20 min. The absorbance signal (end point) was measured on SPARK plate reader at 635 nm (See PiColorLock™ Gold Phosphate Detection System (Abcam) test kit for reference).
The reaction wells containing CD73 enzyme, substrate AMP and DMSO (no compound) were used as positive control, and the reaction wells containing substrate AMP and DMSO but no CD73 enzyme were used as negative control. The percent (%) inhibition at each concentration of compound was calculated based on and relative to the signal in the High and Low control wells contained within each assay plate. The High control wells were considered as 0% inhibition, and the low control wells, which didn't contain any compound but rather DMSO (final concentration=0.5%), as 100% inhibition. IC50 values were obtained using GraphPad Prism software.

[3] = Pharmacokinetic evaluation in ICR mice, intravenous; format: in vivo; conditions: mouse; ICR male mice, 1.0 mg/kg intravenous, plasma
Protocol: A test compound (1.0 mg/kg) was administered to fasted ICR male mice via intravenous injection, and blood samples were collected at time points of 0.08, 0.25, 0.5, 1, 2, 4, 6, 8 and 24 h after the administration. Plasma sample was separated by centrifugation (8000 rpm) and stored at −80° C. until the sample was analyzed. Concentrations of the test compound in the plasma were determined by HPLC-MS/MS: the plasma was dispensed into appropriate tubes containing internal standard and methanol or acetonitrile. The tubes were mixed vigorously for 3 minutes to achieve deproteinization and then centrifuged at 8000 rpm for 5 minutes. The supernatant was transferred to an autosampler vial, injected into the chromatographic system, and quantified on MS/MS detector. Pharmacokinetic parameters including AUC0-t, Cmax, Tmax, t1/2, MRT, Cl and Vd were calculated using WinNonlin 6.3 software. Table 3 summarizes key PK parameters for test compounds (AUC(0-t): the area under the curve from time 0 to time t; AUC(0-∞): the area under the curve from time 0 to infinity; t1/2: Half-life; CL: clearance; C0: the concentration of drug in blood if the drug molecules enter the circulation and are distributed immediately (i.e., at time 0)).

[4] = read-out: EC50, CTG (CellTiter-Glo, cell proliferation)
[5] = read-out: EC50, IFN-γ (ELISA, indicator for T-cell activity)

CD73, sequence (P21589 27-574): as above

EC50 [1, 4] [nM] | EC50 [1, 5] [nM] | IC50 [2] [nM] | AUC(0-inf) [3] [ng·h/mL] | AUC(0-t) [3] [ng·h/mL] | Cmax [3] [ng/mL] | half-life [3] [min] | Compound
7.53 | 14.2 | – | – | – | – | – | O=P(O)(O)CP(=O)(O)OC[C@H]1O[C@@H](n2cnc3c(N4CCC5(CCCCC5)C4)nc(Cl)nc32)C(O)C1O (stereo partly drawn) [Compound b, reference compound]
3.13 | 1.45 | – | – | – | – | – | O=P(O)(O)CP(=O)(O)OC[C@H]1O[C@@H](n2cnc3c(N4CC5(CCc6ccccc65)C4)nc(Cl)nc32)C(O)C1O (stereo partly drawn) [d-1]
– | – | 1.42 | 7450 | 7430 | 12200 | 53.9 | O=P(O)(O)CP(=O)(O)OC[C@H]1O[C@@H](n2cnc3c(N4CCC5(CC4)Cc4ccccc4C5)nc(Cl)nc32)[C@@H](O)C1O (stereo partly drawn) [d-21]
4.07 | 2.53 | 1.76 | – | – | – | – | O=P(O)(O)CP(=O)(O)OC[C@H]1O[C@@H](n2cnc3c(N4CCC(c5ccccc5)(c5ccccc5)C4)nc(Cl)nc32)C(O)C1O (stereo partly drawn) [d-33]
